# According to patent publication US20020039567A1, “Methods of treating bone or cartilage conditions by the administration of creatine” (priority 1998, published 2002):
# Experiments:
# [1] = system: osteoblasts (monolayer culture); assay: Cell viability (neutral red uptake), monolayer osteoblast cell culture; type: cell-based, rat
# Procedure: This isolation technique is based on the ability of osteoblasts to migrate from bone onto a substratum. Parietal and frontal calvariae (4 per animal) were aseptically explanted from 6 day-old IcoIbm rats. The calvariae were placed in Tyrode's balanced salt solution, calcium and magnesium free (TESS). The periosteum was enzymatically removed with 0.05% trypsin and 0.02% collagenase A (0.76 U/mg) dissolved in TBSS (40 calvaria/20 ml). The calvariae were shaken for 70 minutes in a waterbath at 37° C. They were washed with TESS and then transferred to 60 mm culture dishes (40 calvariae/dish) containing 5 ml of 0.02% collagenase A (0.76 U/mg) in culture medium BGJb Fitton-Jackson modification and placed in the incubator for 4 hours. The calvariae were then washed with culture medium B supplemented with 10% foetal calf serum (FCS). The calvariae were transferred into 60 mm culture dishes (4 frontal and 4 parietal/dish). The growth medium supplemented with 10% FCS and 50 μg/ml ascorbate was completely changed every 48 hours. The culture was kept for 3 weeks.
# After 3 weeks the migrated cells were harvested. The dish was washed with TESS, and 5 ml of TESS containing 0.05% trypsin and 0.02% collagenase A (0.76 U/mg) was added. After 1 hour in the incubator, the dish was washed with culture medium BGJb supplemented with 10% FCS. The dishes containing the calvariae and cells were rinsed with serum containing media BGJb. The cells obtained were filtered through a 40 μm nylon mesh to remove bone debris and cell aggregates. The suspended cells were centrifuged at 600 g for 5 minutes. The cell pellet was resuspended in serum containing medium BGJb and centrifuged. The viability of the resuspended cells was examined by the dye exclusion of 0.4% trypan blue, and the cells were counted in a haeinocytometer. The inoculation densities were 2·10^5/10 cm^2 for monolayer and 2·10^5/30 μl for micromasses. The micromass cultures were kept for 1 hour in the incubator before 2 ml growth medium was added.
# All the cultures were kept at 37° C. in a humidified atmosphere of 5% CO2, 95% air. All culture media were supplemented with 50 μg/ml ascorbate. To analyze the collagen types, 60 μg/ml beta-aminopropionitrile (beta-APN) was added to the culture medium. During cell isolation and inoculation, no ascorbate was used to increase plating efficiency. No antibiotics and no beta-glycerophosphate were added. The media were completely changed every 48 hours (60 mm culture dish 5 ml; 35 mm culture dish 2 ml).
# The method described in (Lindl et al. 1994) was used.
# The uptake of NR into lysosomes is […] the metabolic status of the cell.
# 0.5 mg Neutral red/ml growth medium, warmed up to 37° C. for at least 2 hours,
# 50% ethanol in 1% acetic acid
# 1. The cells were incubated in 2 ml/10 cm^2NR solution at 37° C. for 3 hours.
# 2. The supernatant was removed,
# 3. washed with PBS, at least 3 times, until no crystals were present.
# 4. Addition of 4 ml/10 cm^2 extraction buffer.
# 5. The absorbance of the supernatant (3 aliquots/dish) was read at 540 nm versus extraction buffer.
# 6. If the absorbance was higher than 1, the samples were diluted with extraction buffer.
# The mean value and the standard deviation consisted of n independent experiments. The values for the individual experiments were gained from the mean of 3 aliquots of the same dish. To compare the treatment, contrasts analysis of variance models were evaluated.
# [2] = system: osteoblasts (monolayer culture); assay: Mineralization (von Kossa, image analysis), monolayer osteoblast cell culture; type: cell-based, rat; conditions: for mineralization (FIG. 3): no significant difference between groups
# Procedure: This isolation technique is based on the ability of osteoblasts to migrate from bone onto a substratum. Parietal and frontal calvariae (4 per animal) were aseptically explanted from 6 day-old IcoIbm rats. The calvariae were placed in Tyrode's balanced salt solution, calcium and magnesium free (TESS). The periosteum was enzymatically removed with 0.05% trypsin and 0.02% collagenase A (0.76 U/mg) dissolved in TBSS (40 calvaria/20 ml). The calvariae were shaken for 70 minutes in a waterbath at 37° C. They were washed with TESS and then transferred to 60 mm culture dishes (40 calvariae/dish) containing 5 ml of 0.02% collagenase A (0.76 U/mg) in culture medium BGJb Fitton-Jackson modification and placed in the incubator for 4 hours. The calvariae were then washed with culture medium B supplemented with 10% foetal calf serum (FCS). The calvariae were transferred into 60 mm culture dishes (4 frontal and 4 parietal/dish). The growth medium supplemented with 10% FCS and 50 μg/ml ascorbate was completely changed every 48 hours. The culture was kept for 3 weeks. After 3 weeks the migrated cells were harvested. The dish was washed with TESS, and 5 ml of TESS containing 0.05% trypsin and 0.02% collagenase A (0.76 U/mg) was added. After 1 hour in the incubator, the dish was washed with culture medium BGJb supplemented with 10% FCS. The dishes containing the calvariae and cells were rinsed with serum containing media BGJb. The cells obtained were filtered through a 40 μm nylon mesh to remove bone debris and cell aggregates. The suspended cells were centrifuged at 600 g for 5 minutes. The cell pellet was resuspended in serum containing medium BGJb and centrifuged. The viability of the resuspended cells was examined by the dye exclusion of 0.4% trypan blue, and the cells were counted in a haeinocytometer. The inoculation densities were 2·10^5/10 cm^2 for monolayer and 2·10^5/30 μl for micromasses. The micromass cultures were kept for 1 hour in the incubator before 2 ml growth medium was added. All the cultures were kept at 37° C. in a humidified atmosphere of 5% CO2, 95% air. All culture media were supplemented with 50 μg/ml ascorbate. To analyze the collagen types, 60 μg/ml beta-aminopropionitrile (beta-APN) was added to the culture medium. During cell isolation and inoculation, no ascorbate was used to increase plating efficiency. No antibiotics and no beta-glycerophosphate were added. The media were completely changed every 48 hours (60 mm culture dish 5 ml; 35 mm culture dish 2 ml). The most specific method for detecting calcified matrices is the von Kossa reaction. Silver staining indicates the presence of calcium phosphate aggregated with certain organic acids. Structural details are completely obscured by the dark precipitate. Calcified tissue components are darkened in various shades from light brown to deep black, irrespective of their mineral content. [table] In the further experiments to quantify the calcification by image analysis of a center area (123 mm^2) of the culture dish, only the creatine groups were compared to the control groups, with the GPA-treated cells not further evaluated.
# cultured chondrocytes = conditions: cited from earlier work
# [3] = 10 mM creatine vs control, 3 weeks
Compound,"NR uptake (FIG. 1) ([1]; 10 mM and 20 mM creatine vs control, 1 and 2 weeks)",toxic effect (from NR uptake) ([1]; 10 mM creatine),"NR uptake (FIG. 1), difference to control [1, 3]","NR uptake (FIG. 1) ([1]; 10 mM creatine, 3 weeks compared to 1 week, p<0.02)","NR uptake (FIG. 1) ([1]; 20 mM creatine vs control, 3 weeks, p<0.008)","toxic effect (from NR uptake) ([1]; 20 mM creatine, 3 weeks)","mineralization (FIG. 3) [2, 3]","calcified area (FIG. 3) ([2]; 20 mM creatine vs control, 2 weeks, p<0.02, center area 123 mm^2)","mineralization (FIG. 3) ([2]; 20 mM creatine, 3 weeks, compared with 10 mM)","mineralization, mean values ([2]; creatine groups vs control, after 2 and 3 weeks)","calcification pattern ([2]; 3 weeks, GPA groups, mineralization not limited to the nodules)",synthesis of pro-a type II and type X collagen (cultured chondrocytes)
CN(CC(=O)O)C(=N)N [creatine],no significant difference between the groups,no toxic effect,not significant,significantly higher,significantly lowered NR uptake,some toxic effects on the proliferation of the cells,more mineralization than the control,significantly higher,less effective,Mean values were higher,–,–
"N=C(N)NCCC(=O)O [GPA, beta-guanidinopropionic acid]",–,–,–,–,–,–,–,–,–,–,different from the control and the creatine groups,interferes with the synthesis
